Paper PMC4279406, “Simultaneous targeting of PI3Kδ and a PI3Kδ-dependent MEK1/2-Erk1/2 pathway for therapy in pediatric B-cell acute lymphoblastic leukemia” (Oncotarget, 2014)

Tested on: Raji MEK DD cells
Experiment: Erk1/2 phosphorylation in Raji cells expressing MEK DD (Western blot)
Assay type: cell-based, human
Details: 1 h
Method: Figure 5 Inhibition of Erk1/2 phosphorylation by X-370 contributed to its antiproliferative activity (A-C) X-370 inhibited Erk1/2 phosphorylation via PI3K-PDK1-MEK1/2 cascade but not the PI3K-Gab1 positive feedback loop. (A) Raji and SU-DHL-6 cells were exposed to 1 μM X370 for 3 h and protein fraction from cellular membrane was separated using Native Membrane Protein Extraction Kit and probed. WCL: whole cell lysate. (B) Inhibition of PDK1 or MEK1/2 abrogated Erk1/2 phosphorylation. Cells were treated with pharmacological inhibitors of Raf (AZ 628, PLX4032), MEK1/2 (AZD6244), p90RSK (BI-D1870), PI3Kδ (X-370), PDK1 (BX-912), Akt (MK-2206), mTOR (AZD8055) or mTORC1 (Rapamycin) respectively and indicated proteins were detected. (C) X-370 disrupted the association between PDK1 and MEK1/2. Raji cells were treated with 1 μM X370 for 1 h and cell lysates were immunoprecipitated with anti-PDK1 antibody and indicated proteins were detected. WCL: whole cell lysate. […] (E) Raji and Raji MEK DD cells were treated with X-370 for 72 h and cell proliferation was detected by CCK-8 assay. (F) Raji MEK DD cells were treated with X-370 and AZD6244 and cell proliferation was detected by CCK-8 assay. Data were show as mean ± SD of three independent experiments. *: p < 0.05 determined by t-tests at each data point. […]

`O=C(N1CCCC1)N1CCC(n2cnc3c(-n4c(C(F)F)nc5ccccc54)nc(N4CCOCC4)nc32)CC1` [X-370] was tested, and the Erk1/2 phosphorylation was “failed to inhibit”.
